Data taken from US20100210564A1, “DRUG OR FOOD CONTAINING A PEPTIDE” (Kyoto University, priority 2009, published 2010).
Entries after “also recorded” stand apart in the source; their conditions may differ.

Legend:
[1] = tested on: mice; experiment: Elevated plus-maze test, YL in combination with antagonists for various receptors; type: in vivo, mouse; conditions: in words
Excerpt: (§1) The elevated plus-maze (EPM) consisted of two open arms (25×5 cm) and two closed arms (25×5×15 cm), which were joined to a central platform 50 cm high above the floor (see FIG. 1). Because the closed arms were surrounded by fences, a mouse could safely walk in the closed arms irrespective of their elevated position. On the other hand, because the open arms were not surrounded by fences, a mouse walking along the open arms would feel anxious that it might fall down from the elevated position. Therefore, the more time the mouse spent in the open arms, or the greater the number of entries to the open arms, the less anxious the mouse was feeling; thus, the anxiolytic activity was determined based on these indices.
(§2) A mouse was placed on a portion of the central platform facing one of the open arms, and the test was started. During a test time of 5 minutes, the cumulative time spent in the open arms (abbr.: time in open arms), the number of visits to the open arms (abbr.: visit to open arms), and the total number of visits to any of the arms (abbr.: total visits) were recorded. The percentage of the time spent in the open arms and the percentage of the number of visits to the open arms were calculated as indices of anxiety.

[2] = tested on: mice; experiment: Elevated plus-maze test, anxiolytic effects; type: in vivo, mouse; conditions: for Minimum Effective Dose (mg/kg, i.p.): elevated plus-maze, ( ) = showed tendency, — = no anxiolytic effects
Experimental: In the present invention, the anxiolytic effects can be evaluated by the elevated plus-maze test, developed and widely used as a method for evaluating anxiety-related behaviors to screen anxiolytic drugs (FIG. 1). Specifically, the test is performed as follows: a candidate substance for an anxiolytic drug is orally or intraperitoneally administered to a mouse; 30 minutes after the administration, the mouse is placed in an elevated plus-maze; and the potency of the anxiolytic effects is evaluated based on the number of entries to the open arms and a change in the times spent on the open arms.
as §1, §2
The data obtained from the elevated plus-maze test were represented as the means±SEM. The data were analyzed by 1-way or 2-way ANOVA, followed by the Fisher test for multiple comparisons.
(§3) Each of YL (Example 1 and Comparative Example 3), FL (Example 2), YI (Example 3), FI (Example 4), LY (Example 5), LF (Example 6), IY (Example 7), IF (Example 8), YLY (Example 9), YLQ (Example 10), LYL (Example 11), YLYEIAR (Example 12), YV (Example 13), WL (Example 14), LW (Example 15), HL (Example 16), Y (Comparative Example 1), and Y, L (Comparative Example 2) dissolved in physiological saline was administered intraperitoneally (i.p.) or orally (p.o.) to mice (n=3 to 14) in the amounts shown in each figure before the mice were placed in the elevated plus-maze. The percentage of the time spent in the open arms, the percentage of the number of visits to the open arms, and the total number of visits to the arms (total visits) were compared among groups administered each peptide or amino acid, and a control group (0 mg/kg). YL was investigated for its anxiolytic effects by the open-field test. The results are shown in FIGS. 2 to 14, FIGS. 22 to 27, and Table 3.

[3] = tested on: mice; experiment: Open-field test; type: in vivo, mouse
Experimental: The open-field used in this experiment was a cylindrical gray apparatus with a diameter of 60 cm and a height of 50 cm, which is divided into 25 sections with black lines. […] However, once a mouse is administered an anxiolytic drug, the time spent in the circle at the center and the number of entries thereto increase.
as §3

[4] = target: ACE (Homo sapiens, UniProt P12821); experiment: ACE inhibitory effects; type: biochemical; conditions: comparison of YL with IY
[5] = 0.1 mg/kg, i.p., mean ± SEM (n = 6), p < 0.05 vs cont.

Sequence of ACE (P12821 30-1306, species assumed): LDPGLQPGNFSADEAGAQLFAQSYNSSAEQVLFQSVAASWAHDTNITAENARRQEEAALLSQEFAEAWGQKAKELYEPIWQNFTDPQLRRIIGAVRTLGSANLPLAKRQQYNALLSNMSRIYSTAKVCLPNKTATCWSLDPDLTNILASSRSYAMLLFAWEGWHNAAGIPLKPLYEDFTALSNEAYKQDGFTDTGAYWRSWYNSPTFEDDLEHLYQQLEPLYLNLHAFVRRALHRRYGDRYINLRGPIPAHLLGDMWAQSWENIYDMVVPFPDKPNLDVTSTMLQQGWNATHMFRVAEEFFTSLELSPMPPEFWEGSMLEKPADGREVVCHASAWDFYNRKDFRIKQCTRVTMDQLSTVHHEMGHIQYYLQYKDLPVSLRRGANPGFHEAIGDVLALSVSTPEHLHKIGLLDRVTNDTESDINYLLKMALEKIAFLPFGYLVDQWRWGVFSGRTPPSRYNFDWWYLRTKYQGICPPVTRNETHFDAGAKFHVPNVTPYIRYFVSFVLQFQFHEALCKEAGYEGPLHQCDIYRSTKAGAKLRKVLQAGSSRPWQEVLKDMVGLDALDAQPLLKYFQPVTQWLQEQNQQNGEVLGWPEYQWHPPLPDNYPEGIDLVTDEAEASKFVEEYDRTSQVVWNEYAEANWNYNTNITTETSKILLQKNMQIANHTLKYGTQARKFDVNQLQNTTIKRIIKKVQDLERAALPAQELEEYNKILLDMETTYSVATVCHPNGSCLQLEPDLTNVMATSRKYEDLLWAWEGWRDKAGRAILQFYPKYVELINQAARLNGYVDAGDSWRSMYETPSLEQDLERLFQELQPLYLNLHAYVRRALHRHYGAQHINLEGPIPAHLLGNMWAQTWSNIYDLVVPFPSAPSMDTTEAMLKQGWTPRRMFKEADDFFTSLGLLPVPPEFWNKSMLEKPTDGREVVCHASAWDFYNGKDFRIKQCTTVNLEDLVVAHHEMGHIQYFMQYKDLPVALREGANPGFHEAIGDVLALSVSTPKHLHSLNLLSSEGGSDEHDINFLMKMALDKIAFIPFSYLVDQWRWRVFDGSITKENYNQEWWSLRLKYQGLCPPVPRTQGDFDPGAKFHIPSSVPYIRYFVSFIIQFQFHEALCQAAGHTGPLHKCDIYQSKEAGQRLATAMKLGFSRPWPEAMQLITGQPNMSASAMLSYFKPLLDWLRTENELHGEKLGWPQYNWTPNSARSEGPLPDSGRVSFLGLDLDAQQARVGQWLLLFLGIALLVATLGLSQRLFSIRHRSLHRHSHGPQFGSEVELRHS

Compound	effect of the antagonist/inhibitor on the anxiolytic effects of the peptides of the invention [1]	Minimum Effective Dose (mg/kg, i.p.) [2]	also measured
OC(CCCN1CCN(c2ncc(F)cn2)CC1)c1ccc(F)cc1 (stereo not shown) [BMY14802]	not blocked		
CC(C)C[C@H](N)C(=O)O [L, Leu, reference compound]			anxiolytic effects in the elevated plus-maze experiment (in words) [2]: no anxiolytic effects
COc1ccccc1N1CCN(CC(C(=O)NC(C)(C)C)c2ccccc2)CC1 (stereo not shown) [WAY100135]	blocked		
N[C@@H](Cc1ccc(O)cc1)C(=O)O [Y, Tyr, reference compound]			anxiolytic effects in the elevated plus-maze experiment (in words) [2]: no anxiolytic effects
CCOC(=O)c1ncn2c1CN(C)C(=O)c1cc(F)ccc1-2 [flumazenil]	significantly blocked		
COc1ccc2c(c1)c(CC(=O)O)c(C)n2C(=O)c1ccc(Cl)cc1 [indomethacin]	not blocked		
C=CCN1CC[C@]23c4c5ccc(O)c4O[C@H]2C(=O)CC[C@@]3(O)[C@H]1C5 [naloxone]	not blocked		
Oc1ccc2c3c1O[C@H]1c4[nH]c5ccccc5c4C[C@@]4(O)[C@@H](C2)N(CC2CC2)CC[C@]314 [naltrindole]	not blocked		
His-Leu [HL]		0.1 mg/kg	
Ile-Tyr [IY]		10 mg/kg	
Phe-Leu [FL]		0.1 mg/kg	
Trp-Leu [WL]		0.1 mg/kg	
Tyr-Leu [YL]		0.1 mg/kg	Time in Center Circle (%) [3, 5]: 2.06 ± 0.234 %; Visits to Center Circle (%) [3, 5]: 3.02 ± 0.404 %; efficacy in the open-field test (in words) ([3]; mice): demonstrated its efficacy; ACE inhibitory effects [4]: weaker than those of IY; anxiolytic effects in the elevated plus-maze experiment (in words) [2]: stronger anxiolytic effects; also recorded: at least equivalent to those of diazepam
YLYEIAR [peptide; Y Tyr, L Leu, E Glu, I Ile, A Ala, R Arg]		0.3 mg/kg	
